The values below come from paper PMC10155618 (Beilstein Journal of Organic Chemistry, 2023).

The test system of assay [1] is poly rA–poly rU (RNA, polymer) A/U. Nature of the assay: UV thermal melting, 260 nm. The note with it: Na+ (sodium cacodylate, Ic = 0.05 mol dm^-3); Na cacodylate pH 7.0; negligible stabilisation; error ±0.5 °C; per base.
Assay [2] relates to poly dGdC–poly dGdC (DNA, polymer) GC. Briefly: fluorimetric titration, Scatchard/Global Fit. Conditions: Na+ (sodium cacodylate, Ic = 0.05 mol dm^-3); Na cacodylate pH 7.0; compound 1–2 × 10^-6 M; n fixed 0.2; polynucleotide as phosphates; per base.
Assay [3] concerns poly dAdT–poly dAdT (DNA, polymer) AT. Briefly: fluorimetric titration, Scatchard/Global Fit. The note with it: Na+ (sodium cacodylate, Ic = 0.05 mol dm^-3); Na cacodylate pH 7.0; compound 1–2 × 10^-6 M; n fixed 0.2; polynucleotide as phosphates; per base.
The target of assay [4] is T1, human DPP III (dipeptidyl peptidase III, DPPIII), inactive mutant E451A (Homo sapiens, UniProt Q9NY33, E451A).
T1 construct: gene DPP3; recombinant, heterologous expression in Escherichia coli, purified according to Spoljaric et al; mono-zinc metalloexopeptidase
T1 sequence (Q9NY33 2-737 E451A): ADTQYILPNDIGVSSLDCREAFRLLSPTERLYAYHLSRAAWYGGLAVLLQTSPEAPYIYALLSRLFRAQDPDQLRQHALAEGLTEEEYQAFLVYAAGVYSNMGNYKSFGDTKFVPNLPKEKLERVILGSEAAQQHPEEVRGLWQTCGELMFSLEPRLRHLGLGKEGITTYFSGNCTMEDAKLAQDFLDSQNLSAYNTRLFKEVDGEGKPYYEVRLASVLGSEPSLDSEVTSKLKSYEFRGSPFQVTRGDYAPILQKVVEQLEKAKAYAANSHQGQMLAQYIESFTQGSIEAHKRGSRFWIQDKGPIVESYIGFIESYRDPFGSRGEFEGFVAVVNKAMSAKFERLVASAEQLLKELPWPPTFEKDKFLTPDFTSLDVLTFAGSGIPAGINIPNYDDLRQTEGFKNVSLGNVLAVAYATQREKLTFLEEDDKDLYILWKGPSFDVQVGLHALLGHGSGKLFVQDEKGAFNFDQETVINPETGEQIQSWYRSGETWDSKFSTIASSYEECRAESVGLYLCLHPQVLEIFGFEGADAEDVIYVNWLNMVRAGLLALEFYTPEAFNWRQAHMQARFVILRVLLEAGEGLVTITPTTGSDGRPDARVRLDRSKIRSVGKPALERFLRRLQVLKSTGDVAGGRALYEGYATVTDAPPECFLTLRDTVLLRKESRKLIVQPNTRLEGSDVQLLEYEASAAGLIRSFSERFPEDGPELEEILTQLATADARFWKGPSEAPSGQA
Nature of the assay: isothermal titration calorimetry, one set of sites, N fixed to […]. In kind it is binding. Conditions: read-out: log Ka (converted).

The subject of assay [5] is poly rA–poly rU (RNA, polymer) A/U. Briefly: fluorimetric titration, Scatchard/Global Fit. The note with it: Na+ (sodium cacodylate, Ic = 0.05 mol dm^-3); Na cacodylate pH 7.0; compound 1–2 × 10^-6 M; n fixed 0.2; polynucleotide as phosphates; per base.

What is called ΔTm is the change in melting temperature against a reference sample. Regarding `COC(=O)[C@H](Cc1ccc2c(c1)c(C)nc1ccccc12)NC(=O)c1ccc2ccc3cccc4ccc1c2c34`, the thermal shift (ΔTm) in assay [1] was less than 0.5 °C.

For `COC(=O)[C@H](Cc1ccc2c(c1)c(C)nc1ccccc12)NC(=O)CCCc1ccc2ccc3cccc4ccc1c2c34` [Phen-Py-1], the “log Ka” value in assay [2] is recorded as 6.87; in assay [3] it was 5.97; in assay [5], 7.07. Also, the Kd in assay [4] is 3.39 µM. In addition, the shift in melting temperature (ΔTm) in assay [1] was less than 0.5 °C.
